Source: US11584728B2, “Compositions and methods for the prevention and/or treatment of mitochondrial disease, including Friedreich's ataxia” (STEALTH BIOTHERAPEUTICS INC., priority 2019, dated 2023)
Read-outs that look alike come from different tables or passages of the source.

Assays:
[1] = test system: frataxin deficient fibroblasts (GM03665); test: Frataxin Deficient Fibroblast Viability Assay (BSO Assay); settings: Homo sapiens, 48 h
[2] = test system: HepG2 human hepatocarcinoma cells; test: Rotenone ATP-Assay (Complex I by-pass); format: cell-based; settings: for Activity in both the BSO Assay and the Rotenone ATP Assay (in words): circumvent BSO induced cell death and restore ATP production when Complex I is inhibited; for EC50: Homo sapiens, 1 h, HepG2 cells, 50 micromolar rotenone, 60 minutes
Protocol: Example 18: Rotenone ATP-Assay
Introduction: • This assay has been adapted from Haefeli R H, Erb M, Gemperli A C, Robay D, Courdier Fruh I, et al. (2011) NQO1-Dependent Redox Cycling of Idebenone: Effects on Cellular Redox Potential and Energy Levels. PLoS ONE 6(3): e17963. HepG2 human hepatocarcinoma cells were co-incubated with the electron transport chain Complex I toxin rotenone +/−compounds of interest and the corresponding effect on ATP synthesis was measured with a bioluminescent substrate.
Assay Experimental: • In brief, HepG2 cells were plated at 25,000 cells per well in low glucose (1 gram/Liter) DMEM medium +10% fetal calf serum and incubated for 24 hours. The following day, the media was decanted and subsequently replaced with glucose free/serum free DMEM which has been supplemented with 50 micromolar rotenone and compound of interest. Serial dilutions of compound were prepared in 3× dilutions beginning at 25 micromolar. The cells were incubated for 60 minutes in a humidified tissue culture incubator. Following incubation, ATP levels were quantified via bioluminescent assay (Promega […]) and readings were captured on a standard microplate reader.
Calculations: • ATP bioluminescence is plotted versus the log of compound of interest and data were used to generate EC50 values. Curve fitting was performed using a sigmoidal dose response curve fit function (GraphPad Prism software).
Robustness of curve fit was assessed as a quality control measure, with an R squared value of at least 0.80 being required for a successful curve fit. Compounds of interest showing an increase in ATP bioluminescence relative to vehicle control were verified in an independent biological replicate of n=3 technical replicates per dose.
Discussion: • This assay is a direct measure of the ability of compounds of interest to restore ATP production under conditions of inhibition of Complex I of the mitochondrial electron transport chain. As the majority of ATP produced via the electron transport chain is thought to derive from Complex I activity, significant impairment in Complex I function has dire biological consequences. Of note, Complex I mutations are thought to drive pathophysiology in multiple mitochondrial diseases, including Leigh syndrome and Leber's Hereditary Optic Neuropathy (LHON), while diminished Complex I activity and the resultant attenuation of ATP production has been shown in neurodegenerative diseases, including Friedreich's Ataxia, Parkinson's Disease and Huntington's Disease.

[3] = test system: GM03665 cells; test: RSL3 Toxicity Assay (RSL3 Assay); format: cell-based, human; settings: Homo sapiens, GM03665 cells, RSL3 2 μM, 24 hours, MTT
Protocol: Example 19: RSL3 Toxicity Assay (RSL3 Assay)
In brief, GM03665 cells (Coriell Institute) were seeded in 96-well plates (Sarstedt) in DMEM cell culture media containing 10% Fetal Bovine serum and 1% Penicillin-Streptomycin (Pen-Strep) antibiotic mix at the amount of 2×10^4/mL (100 μL or 2×10^3 cells per well). Cells were left to rest overnight at 37° C. in a humidified atmosphere with 5% CO2 to allow attachment of the cells to the culture plate. Test compounds were prepared as DMSO stocks (10 mM) and were serially diluted in cell culture media to obtain 2× working solutions. Cell media was discarded and replaced by 50 μL of test compound solutions or cell media with vehicle for control wells. Within 15 minutes, 2× working solution (4 μM) of 1S,3R-RSL3 (CAS #1219810-16-8, Sigma-Aldrich) (diluted from 5 mM DMSO stock in cell culture media) was added. Final reaction volume was 100 μL and final DMSO concentration in reaction was kept below 0.2% (v/v) and equal in all wells. Final RSL3 concentration was 2 μM and test compound final concentrations in reaction were up to 1000 nM. After 24 hours of incubation cell viability was assessed by MTT test. MTT (Sigma-Aldrich) solution 1 mg/mL in 1×PBS (pH=7,4) was prepared 1 hour before the assay and filtered through Filtropur S 0.2 filters (Sarstedt). Cell media with test compounds was discarded and 100 μL of MTT solution was added to cells. The plates were incubated for 2 hours at +37° C. Thereafter, the MTT solution was removed and 100 μL of isopropanol was added to dissolve sediment. Absorption at 570 and 650 nm was measured using Hidex Sense microplate reader.

[4] = test system: Nrf-2; test: Nrf-2 Activation Assay (Nrf-2 Assay); format: cell-based, human; settings: 1 μM, 24 hours; for Nrf-2 Assay: Table 7, GM03665 fibroblasts, qPCR of Nrf-2 responsive genes
Protocol: Example 21: Nrf-2 Activation Assay (Nrf-2 Assay)
This assay was developed internally and was designed to determine if the novel test compounds disclosed herein active Nrf-2 and thereby promote resolution of inflammation by the mechanism believed to be responsible for the activity of omaveloxolone.
Briefly, GM03665 Friedreich Ataxia patient fibroblasts were grown in 12 Well Plates (TC Cell+F) (Sarstedt, Nümbrecht Germany), at a density of 12×10^4 cells/per well in DMEM/F12 (Gibco, ThermoFisher Scientific, Waltham, Mass., USA) cell media supplemented with 10% FBS and 1% Pen/Strep. Cells were left to rest overnight at 37° C. in a humidified atmosphere with 5% CO2 to allow attachment of the cells to the culture plate. Before continuing assay visual inspection of each well was done by light microscopy to detect any possible bacterial and fungal contamination. […] After incubation, cell media was removed and total RNA from the cells was isolated using E.Z.N.A.® Total RNA Kit I (Omega Bio-tek, Norcross, Ga., USA) spin columns, and first-strand cDNA synthesis was carried out using a High Capacity cDNA Reverse Transcription Kit (Applied Biosystems™, Foster City, Calif.) following the manufacturer's instructions. qPCR analysis of gene expression was performed by mixing SYBR® Green Master Mix (Applied Biosystems™) with synthesized cDNA and forward and reverse primers. […] (60 cycles), and 95° C. for 60 seconds, followed by melt curve analysis at 72-95° C., 0.3° C./sec. The relative expression levels for each gene were calculated with the ΔΔCt method and normalized to the expression of REEP5 and SNRPD3 genes.

[5] = ATP bioluminescence, read-out: EC50 Rotenone ATP Assay
[6] = Table 3, mean of at least three measurements, nM printed in Table 7, read-out: RSL3 Assay EC50, Mean
[7] = Table 7, read-out: RSL3 Assay EC50
[8] = Table 7, read-out: Rotenone ATP Assay EC50

Structure (SMILES) | EC50 ([1]; read-out: EC50 (nM) BSO Assay) | EC50 [2, 5] | EC50 ([1]; read-out: BSO Assay) | further results
C/C(=C\CC[C@]1(C)CCc2c(C)c(O)c(C)c(C)c2O1)CCC=C(F)F [Compound 56, (R,E)-2-(8,8-difluoro-4-methylocta-3,7-dien-1-yl)-2,5,7,8-tetramethylchroman-6-ol] | < 100 nM | – | – | –
Cc1c(C)c2c(c(C)c1O)CC[C@@](C)(CCC=C(F)F)O2 [Compound 67, (R)-2-(4,4-difluorobut-3-en-1-yl)-2,5,7,8-tetramethylchroman-6-ol] | < 100 nM | – | – | Activity in both the BSO Assay and the Rotenone ATP Assay (in words) [2]: possess both activities
CC1=C(C)C(=O)C(CC[C@](C)(O)CC/C=C(\C)CC/C=C(\C)CCC=C(CF)CF)=C(C)C1=O [Compound A, 2-((R,6E,10E)-16-fluoro-15-(fluoromethyl)-3-hydroxy-3,7,11-trimethylhexadeca-6,10,14-trien-1-yl)-3,5,6-trimethylcyclohexa-2,5-diene-1,4-dione] | < 100 nM | – | – | –
CC(=CCC/C(C)=C/CC/C(C)=C/CC[C@@](C)(O)CCC1=C(C)C(=O)C(C)=C(C)C1=O)CF [Compound B, 2-((R,6E,10E)-16-fluoro-3-hydroxy-3,7,11,15-tetramethylhexadeca-6,10,14-trien-1-yl)-3,5,6-trimethylcyclohexa-2,5-diene-1,4-dione] | < 100 nM | – | – | –
CC1=C(C)C(=O)C(CC[C@](C)(O)CC/C=C(\C)CC/C=C(\C)CCC=C(F)F)=C(C)C1=O [Compound C, 2-((R,6E,10E)-15,15-difluoro-3-hydroxy-3,7,11-trimethylpentadeca-6,10,14-trien-1-yl)-3,5,6-trimethylcyclohexa-2,5-diene-1,4-dione] | < 100 nM | – | – | –
CC1=C(C)C(=O)C(CC[C@](C)(O)CC/C=C(\C)CC/C=C(\C)CCC=C2CCC2)=C(C)C1=O [Compound D, 2-((R,6E,10E)-14-cyclobutylidene-3-hydroxy-3,7,11-trimethyltetradeca-6,10-dien-1-yl)-3,5,6-trimethylcyclohexa-2,5-diene-1,4-dione] | < 100 nM | > 3000 nM | – | –
CC1=C(C)C(=O)C(CC[C@](C)(O)CC/C=C(\C)CC/C=C(\C)CCC=C2CCCC2)=C(C)C1=O [Compound F, 2-((R,6E,10E)-14-cyclopentylidene-3-hydroxy-3,7,11-trimethyltetradeca-6,10-dien-1-yl)-3,5,6-trimethylcyclohexa-2,5-diene-1,4-dione] | < 100 nM | – | – | –
CC1=C(C)C(=O)C(CC[C@](C)(O)CC/C=C(\C)CC/C=C(\C)CCC=C2CCCCC2)=C(C)C1=O [Compound G, 2-((R,6E,10E)-14-cyclohexylidene-3-hydroxy-3,7,11-trimethyltetradeca-6,10-dien-1-yl)-3,5,6-trimethylcyclohexa-2,5-diene-1,4-dione] | < 100 nM | – | – | –
CC1=C(C)C(=O)C(CC[C@](C)(O)CC/C=C(\C)CCC=C(F)F)=C(C)C1=O [Compound H, (R,E)-2-(11,11-difluoro-3-hydroxy-3,7-dimethylundeca-6,10-dien-1-yl)-3,5,6-trimethylcyclohexa-2,5-diene-1,4-dione] | 100 to 1000 nM | < 1000 nM | 164 nM | EC50 [3, 6]: 179 nM; EC50 [3, 7]: 179 nM; EC50 [2, 8]: 1140 nM; Nrf-2 Assay [4]: Inactive
CC1=C(C)C(=O)C(CC[C@](C)(O)CCC=C(F)F)=C(C)C1=O [Compound I, (R)-2-(7,7-difluoro-3-hydroxy-3-methylhept-6-en-1-yl)-3,5,6-trimethylcyclo-hexa-2,5-diene-1,4-dione] | 100 to 1000 nM | > 3000 nM | – | –
CC1=C(C)C(=O)C(CC[C@@](C)(O)CC/C=C(\C)CC/C=C(\C)CCC=C(F)F)=C(C)C1=O [Compound J, 2-((S,6E,10E)-15,15-difluoro-3-hydroxy-3,7,11-trimethylpentadeca-6,10,14-trien-1-yl)-3,5,6-trimethylcyclohexa-2,5-diene-1,4-dione] | < 100 nM | – | – | –
CC1=C(C)C(=O)C(CC[C@@](C)(O)CCC=C(F)F)=C(C)C1=O [Compound K, (S)-2-(7,7-difluoro-3-hydroxy-3-methylhept-6-en-1-yl)-3,5,6-trimethylcyclo-hexa-2,5-diene-1,4-dione] | < 100 nM | > 3000 nM | – | –
CC1=C(C)C(=O)C(CC[C@@](C)(O)CC/C=C(\C)CCC=C(F)F)=C(C)C1=O [Compound L, (S,E)-2-(11,11-difluoro-3-hydroxy-3,7-dimethylundeca-6,10-dien-1-yl)-3,5,6-trimethylcyclohexa-2,5-diene-1,4-dione] | < 100 nM | < 1000 nM | 39.1 nM | EC50 [3, 6]: 41.9 nM; EC50 [3, 7]: 41.9 nM; EC50 [2, 8]: 891 nM; Activity in both the BSO Assay and the Rotenone ATP Assay (in words) [2]: possess both activities; Nrf-2 Assay [4]: Inactive
CC1=C(C)C(=O)C(CC[C@](C)(O)CCCCCCCCC(F)(F)F)=C(C)C1=O [Compound N, (R)-2,3,5-trimethyl-6-(12,12,12-trifluoro-3-hydroxy-3-methyldodecyl)cyclo-hexa-2,5-diene-1,4-dione] | 100 to 1000 nM | 1000 to 3000 nM | 144 nM | EC50 [3, 6]: 93 nM; EC50 [3, 7]: 93 nM; EC50 [2, 8]: 2360 nM; Activity in both the BSO Assay and the Rotenone ATP Assay (in words) [2]: possess both activities; Nrf-2 Assay [4]: Inactive
COC1=C(OC)C(=O)C(CCCCCCCCCCO)=C(C)C1=O [Idebenone, reference compound] | – | 1000 to 3000 nM | > 1000 nM | EC50 [2, 8]: 1560 nM
CC1(C)CC[C@]2(NC(=O)C(C)(F)F)CC[C@]3(C)[C@H](C(=O)C=C4[C@@]5(C)C=C(C#N)C(=O)C(C)(C)[C@@H]5CC[C@]43C)[C@@H]2C1 [Omaveloxolone, reference compound] | < 100 nM | > 3000 nM | 48.6 nM | Activation of Nrf-2 responsive genes (in words, FIG. 7) [4]: positive; Nrf-2 Assay [4]: Active
